Assay [1] addresses Kappa-type opioid receptor (Rattus norvegicus) (UniProt P34975). The assay is described as follows: Antagonist activity at rat kappa opioid receptor expressed in CHO cell membranes assessed as inhibition of Dyn A-(1-13)NH2-induced [35S]GTPgammaS binding by schild analysis. It counts as functional. In general terms: GTPγS is a poorly hydrolysed GTP analogue; its binding reports G protein activation.

Assay [2] concerns the target Delta-type opioid receptor (Rattus norvegicus, UniProt P33533). The assay is described as follows: Displacement of [3H]DPDPE from rat delta opioid receptor expressed in CHO cells after 90 mins by scintillation counting analysis. It counts as cell-based. (Displacement assays read how much labelled ligand stays bound in the presence of the test substance.)
The target in assay [3] is Kappa-type opioid receptor (Rattus norvegicus) (UniProt P34975). Nature of the assay: Antagonist activity at rat kappa opioid receptor expressed in CHO cell membranes assessed as inhibition of Dyn A-(1-13)NH2-induced [35S]GTPgammaS binding at 10 uM relative to control. It counts as functional.

The results in this text go back to ChEMBL document CHEMBL4184193, “Design, synthesis, and opioid activity of arodyn analogs cyclized by ring-closing metathesis involving Tyr(allyl)” (Bioorg Med Chem, 2018).

pKi: −log10 of the molar value. Where a SMILES comes first, the peptide text is derived from it. [ ]: non-standard residue; d: D form.

Sequence of Kappa-type opioid receptor (Rattus norvegicus) (P34975 whole entry): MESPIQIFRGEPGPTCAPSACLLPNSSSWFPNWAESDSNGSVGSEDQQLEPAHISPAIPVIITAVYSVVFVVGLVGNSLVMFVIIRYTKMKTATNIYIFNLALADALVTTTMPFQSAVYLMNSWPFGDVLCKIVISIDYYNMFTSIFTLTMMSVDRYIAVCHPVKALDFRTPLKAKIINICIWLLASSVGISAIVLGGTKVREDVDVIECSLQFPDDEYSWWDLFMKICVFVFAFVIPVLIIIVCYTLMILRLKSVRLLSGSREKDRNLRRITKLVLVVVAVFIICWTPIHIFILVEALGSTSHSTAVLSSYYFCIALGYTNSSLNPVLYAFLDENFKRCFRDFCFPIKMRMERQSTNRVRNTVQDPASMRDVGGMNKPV
Sequence of Delta-type opioid receptor (P33533 whole entry): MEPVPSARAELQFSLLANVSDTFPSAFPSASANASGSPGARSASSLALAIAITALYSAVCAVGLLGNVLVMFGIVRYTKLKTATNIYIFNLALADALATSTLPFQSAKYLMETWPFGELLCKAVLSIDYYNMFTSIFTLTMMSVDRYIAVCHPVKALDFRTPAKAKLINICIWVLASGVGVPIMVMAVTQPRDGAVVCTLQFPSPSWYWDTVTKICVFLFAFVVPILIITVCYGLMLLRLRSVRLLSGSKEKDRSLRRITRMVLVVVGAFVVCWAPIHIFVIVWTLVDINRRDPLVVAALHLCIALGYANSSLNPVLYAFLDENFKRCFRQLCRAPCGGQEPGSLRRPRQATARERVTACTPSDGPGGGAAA

In general, Kb refers to the affinity of an antagonist, worked out from how it opposes an agonist. Take `CC(=O)N[C@@H](Cc1ccccc1)C(=O)N[C@@H](Cc1ccccc1)C(=O)N[C@@H](Cc1ccccc1)C(=O)N[C@@H](CCCN=C(N)N)C(=O)N[C@@H](CC(C)C)C(=O)N[C@@H](CCCN=C(N)N)C(=O)N[C@@H](CCCN=C(N)N)C(=O)N[C@@H](C)C(=O)N[C@@H](CCCN=C(N)N)C(=O)N1CCC[C@H]1C(=O)N[C@@H](CCCCN)C(N)=O` (Ac-FFFRLRRARPK-NH2): the antagonist equilibrium constant (Kb) in assay [1] stood at 17 nM.
One may read the pKi as −log10 of the Ki, conventionally taken in molar units. A high value points to a small Ki. Compound `CC(=O)N[C@@H](Cc1ccccc1)C(=O)N[C@@H](Cc1ccccc1)C(=O)N[C@@H](Cc1ccccc1)C(=O)N[C@@H](CCCNC(=N)N)C(=O)N[C@@H](CC(C)C)C(=O)N[C@@H](CCCNC(=N)N)C(=O)N[C@@H](CCCNC(=N)N)C(=O)N[C@H](C)C(=O)N[C@@H](CCCNC(=N)N)C(=O)N1CCC[C@H]1C(=O)N[C@@H](CCCCN)C(N)=O` (Ac-FFFRLRR[dA]RPK-NH2) had a pKi in assay [2] below 5.30.
As a reminder, the inhibition is the relative decrease from the control value, in per cent. On to `CC[C@H](C)[C@H](NC(=O)[C@H](CCCNC(=N)N)NC(=O)[C@@H]1C/C=C/COc2ccc(cc2)C[C@H](NC(=O)[C@H](Cc2ccccc2)NC(=O)[C@H](Cc2ccccc2)NC(C)=O)C(=O)N[C@@H](CCCNC(=N)N)C(=O)N1)C(=O)N[C@@H](CCCNC(=N)N)C(=O)N1CCC[C@H]1C(=O)N[C@@H](CCCCN)C(N)=O`, for which the inhibition in assay [3] turned out to be 3.3%.
